Test results published in patent US6258780A (priority 1997, dated 2001).
Entries after “also recorded” stand apart in the source; their conditions may differ.

Columns and labels:
[1] = test system: hippocampal slices; experiment: paired-pulse facilitation in hippocampal slices; format: cell-based
[2] = test system: c-fos mRNA; format: cell-based, mouse; conditions: with pyridostigmine 1 mM, 1 hour; BAPTA-AM 1 uM or TTX
[3] = test system: ChAT or VAChT mRNA; format: cell-based, mouse; conditions: with pyridostigmine 1 mM, 1 hour; BAPTA-AM 1 uM or TTX
[4] = test system: serum BuChE; conditions: 0.1-0.5 mg/kg; cited from earlier work
[5] = test system: c-fos mRNA; experiment: brain c-fos mRNA by RT-PCR after pyridostigmine in mice; format: in vivo, mouse; conditions: 20 minutes following 2 mg/kg
[6] = test system: synaptophysin mRNA; experiment: synaptophysin mRNA control test, in vivo or in brain slices; format: cell-based
[7] = remark: listed apart in the source
Experimental: Symptoms were reported at the end of the study. […] Percent inhibition (standard deviation was calculated in comparison to the average activity calculated in non-injected, not-stressed (n=12) and stressed (n=6) animals.
In both human studies each individual was asked to report on a yes/no questionnaire regarding symptoms related to the drug.

[8] = cited from earlier work
[9] = test system: serum butyrylcholinesterase (BuChE); experiment: serum BuChE activity after injection in mice; format: in vivo, mouse; conditions: for reduction of serum BuChE activity from normal levels: non-stressed mice, 0.1 mg/kg i.p., 10 minutes, 3 animals/group
Experimental: Symptoms were reported at the end of the study.
Stress Induction: Stress was induced in adult FVB/N mice by 2×4 minute forced swim with a 4 minute rest interval in a 60×60 cm water bath at about 21° C., adapted from Melia et al, [1994]. […] Animals were decapitated 10 minutes following injection, trunk blood was collected [Melia et al, 1994], and cerebral cortex was quickly dissected and homogenized in solution D (10 mM Tris-HCl, pH 7.4, 1M NaCl, 1% Triton-X100, 1 mM EDTA, 1:10 weight/volume)[Neville et al, 1990]

[10] = test system: readthrough (I4) AChEmRNA; experiment: readthrough (I4) AChEmRNA by RT-PCR / in situ hybridization; format: cell-based, mouse
Excerpt: FIG. 7A are photographs showing kinetic follow-up of RT-PCR: Positions of primer pairs specific for the alternatively spliced AChEmRNA subtypes are presented on the left. [Primer pair 1361+/1869- ("E6") detects mRNA encoding the synaptic AChE form; […] ("I4/E5") detects both a 549 bp product of readthrough AChEmRNA and a 432 bp product encoding the GPI-lined red blood cell (RBC) form of the enzyme]. Note that both in vivo stress and in vitro AChE inhibition promoted significant increases of the readthrough (I4) but not the synaptic (E6) or erythrocyte (E5) forms of AChEmRNA. […] Signals were detected using alkaline phosphatase-streptavidin conjugates and Fast Red as a substrate. Shown are cortical layers II-V (upper panels), and magnified pyramidal neurons of cortical layer no. 2 (lower panels).
Selective induction of readthrough AChEmRNA following stress and AChE inhibition were measured using kinetic follow-up of RT-PCR. The positions of primer pairs specific for the alternatively spliced AChEmRNA subtypes are presented on the left of the FIG. 7. [Primer pair 1361+/1869- ("E6") detects mRNA encoding the synaptic AChE form; 1361+/175- ("I4/E5") detects both a 549 bp product of readthrough AChEmRNA and a 432 bp product encoding the GPI-lined red blood cell (RBC) form of the enzyme]. Both in vivo stress (forced swimming) and in vitro AChE inhibition promoted significant increases of the readthrough (I4) but not the synaptic (E6) or erythrocyte (E5) forms of AChEmRNA. […] Signals were detected using alkaline phosphatase-streptavidin conjugates and Fast Red as a substrate. […] 2 (lower panels).

[11] = PNS symptoms questionnaire, pyridostigmine in humans
[12] = test system: AChE mRNA; experiment: brain AChE mRNA by RT-PCR after pyridostigmine in mice; format: in vivo, mouse; conditions: pyridostigmine administration, FIG. 10A lower panel
[13] = similar regimen; cited from earlier work
[14] = test system: hippocampal slices, CA1 area; format: cell-based
[15] = test system: serum BuChE; conditions: cited from earlier work
[16] = HRP penetration into brain following swim stress (immunohistochemistry)
[17] = BBB permeability to Evans Blue following stress, adrenaline or atropine (Example 2)
[18] = brain penetration of Evans-blue dye following stress; conditions: stressed versus control

CC(=O)OCOC(=O)CN(CC(=O)OCOC(C)=O)c1ccccc1OCCOc1ccccc1N(CC(=O)OCOC(C)=O)CC(=O)OCOC(C)=O [BAPTA-AM]
physostigmine-induced prolongation of paired-pulse facilitation ([1]; 1 uM physostigmine and 1 uM BAPTA-AM, 1 hour): complete prevention
enhanced paired-pulse facilitation ([1]; BAPTA-AM, FIG. 5A): prevented
anti-cholinesterase-induced change in c-fos mRNA [2]: attenuated; also recorded: suppressed
anti-cholinesterase-induced change in ChAT mRNA [3]: attenuated; also recorded: suppressed

NCCc1ccc(O)c(O)c1 [DA]
enhancement of the body temperature reduction by coinjection (DA 1.0 mg/kg with pyridostigmine 0.6 mg/kg): approximately 0.5 °C

CC(C)NC[C@H](O)COc1cccc2ccccc12 (racemic) [propanolol]
time for body temperature to return to normal (post injection): ≤ 80 min
time of reduction in body temperature (pyridostigmine alone or together with propanolol): ≤ 40 min

CN(C)C(=O)Oc1ccc[n+](C)c1 [pyridostigmine]
inhibition of serum BuChE activity at protective doses [4]: 15-30%
amount of c-fos and AChE mRNA (earlier appearance of PCR product) [5]: increase in the amount of c-fos (upper panel) and AChE mRNA (lower panel)
synaptophysin mRNA [6]: no change
soldiers reporting CNS symptoms, average ([7]; Gulf War, 213 soldiers): 23.6%
soldiers reporting CNS symptoms, range ([7]; Gulf War, 213 soldiers): 6.2-53.4%
participants reporting CNS symptoms, average ([7]; peace time, double-blind): 8.3%
participants reporting CNS symptoms, range ([7]; peace time, double-blind): 0-16.6%
CNS functions in primates ([8]; doses >1 mg/kg): perturb CNS functions
CNS functions in non-stressed primates or humans at peace time ([8]; non-stressed): unaffected CNS functions
reduction of serum BuChE activity from normal levels [9]: 16.7+/-6.9%
BuChE inhibition in stressed mice ([9]; stressed mice, 0.1 mg/kg): tendency toward limitation of BuChE inhibition
subcellular localization of I4-AChEmRNA ([10]; pyridostigmine 2 mg/kg): shifted from around the nucleus under control conditions to the entire cell bodies and their apical dendrites
I4-AChEmRNA labeling of cortical layers ([10]; pyridostigmine 2 mg/kg, control: layers II+V): intensified and included layer III+IV
readthrough AChE mRNA labeling of somata and apical dendrites, all cortical layers ([10]; pyridostigmine exposure): intensely labeled
soldiers reporting PNS symptoms, average ([11]; Gulf War, 213 soldiers): 11.4%
soldiers reporting PNS symptoms, range ([11]; Gulf War, 213 soldiers): 6.1-20.4%
participants reporting PNS symptoms, average ([11]; peace time, double-blind): 18.8%
participants reporting PNS symptoms, range ([11]; peace time, double-blind): 5.5-38.9%
AChE mRNA product appearance [12]: earlier appearance
frequency of reported CNS symptoms, increase during the Gulf War [13]: > 3 fold
amplitude and rate of rise of evoked population spikes in CA1 [14]: increase in the amplitude and rate of rise of evoked population spikes
inhibition efficacy of serum butyrylcholinesterase, Gulf War [15]: not modified

C[N+](C)(C)CCOC(N)=O [carbachol]
amplitude of population spikes [14]: increased the amplitude of population spikes
signal increase by carbamylcholine [14]: dose-dependent increases in signal

HRP: horseradish peroxidase, used to study changes in the BBB
HRP staining of the hippocampus ([16]; following forced swimming): highest number of stained cells; also recorded: strong HRP staining
penetration of HRP into brain ([16]; forced swimming stress): increased penetration
HRP staining, Corpus callosum, non-stressed control ([16]; non-stressed control): little staining
HRP staining, Hippocampus, CA1-2, non-stressed control ([16]; non-stressed control): no staining
HRP staining, Medial hypothalamus (arcuate nucleus), non-stressed control ([16]; non-stressed control): + (diffuse staining)
HRP staining, Hippocampus, CA1-2, stressed ([16]; stressed): staining of cells
HRP staining of central nucleus of amygdala and paraventricular nucleus of hypothalamus ([16]; stressed mice): absence of HRP staining

CNCC(O)c1ccc(O)c(O)c1 (centres unmarked) [adrenaline]
effectiveness in opening the BBB compared with stress ([17]; administered doses and time course, atropine or adrenaline ip): somewhat less effective

CN1[C@@H]2CC[C@H]1C[C@@H](OC(=O)C(CO)c1ccccc1)C2 (some centres unmarked) [atropine]
both phases of physostigmine-mediated hyperactivity [14]: blocked
suppression 1 hour after removal of atropine [14]: no suppression took place

Cc1cc(-c2ccc(/N=N/c3ccc4c(S(=O)(=O)O)cc(S(=O)(=O)O)c(N)c4c3O)c(C)c2)ccc1/N=N/c1ccc2c(S(=O)(=O)O)cc(S(=O)(=O)O)c(N)c2c1O [Evans-blue]
increase in brain penetration of Evans-blue under stress [18]: > 10 fold
BBB permeability to Evans Blue ([17]; following stress or 10 minutes after ip adrenaline or atropine): enhanced BBB permeability

CNC(=O)Oc1ccc2c(c1)[C@]1(C)CCN(C)[C@@H]1N2C [physostigmine]
paired-pulse facilitation responses, 1 hour ([1]; 1 mM physostigmine, 1 hour): prolonged duration and the intense signals of facilitation responses
paired-pulse facilitation responses, 3 hours ([1]; 1 mM physostigmine, 3 hours): suppression of both these responses
reduction of serum BuChE activity from normal levels [9]: 22.6+/-5.4%
responsiveness of cholinergic pathways to stimulation [14]: prominently muted, approaching that displayed by control slices
